For orientation: inhibition means the relative decrease from the control value, in per cent.

Here are results for 19 compounds from patent publication US8748422B2, “Pharmaceutical compositions containing quinazoline derivatives for treating as serotonin receptor antagonist” (Korea Institute of Science and Technology, priority 2007, dated 2014).

This test concerns the target T1, serotonin 5-HT3A receptor (Homo sapiens, UniProt P46098).
T1 sequence (P46098 24-478): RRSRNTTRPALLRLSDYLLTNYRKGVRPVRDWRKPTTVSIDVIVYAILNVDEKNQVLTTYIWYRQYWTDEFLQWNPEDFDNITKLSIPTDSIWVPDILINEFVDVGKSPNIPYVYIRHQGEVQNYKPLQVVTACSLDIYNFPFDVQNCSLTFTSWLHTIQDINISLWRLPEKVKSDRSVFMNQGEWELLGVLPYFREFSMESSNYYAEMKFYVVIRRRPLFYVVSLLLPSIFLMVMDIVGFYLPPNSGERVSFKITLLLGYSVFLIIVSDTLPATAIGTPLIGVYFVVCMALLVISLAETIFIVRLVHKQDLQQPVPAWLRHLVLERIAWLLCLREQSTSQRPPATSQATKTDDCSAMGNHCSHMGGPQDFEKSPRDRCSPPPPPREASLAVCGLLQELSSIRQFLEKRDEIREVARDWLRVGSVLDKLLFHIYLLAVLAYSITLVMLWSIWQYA
The experiment in a line: Assay for 5-HT3A receptor: two-electrode voltage clamp in Xenopus oocytes, inhibition of 5-HT-induced inward current. In kind it is cell-based. The note with it: 5-HT3A receptor expressed in Xenopus laevis oocytes; for nH (Hill coefficient) / inhibition: from concentration-response curves; for inhibition / IC50: inward current induced by 5-HT (1 μM); for inhibition: read-out: Vmax (maximum inhibition value); for IC50: test concentrations 0.003-100 μM, read-out: IC50 (50% inhibitory concentration). On the technique in general: In two-electrode clamp one electrode senses voltage and the other passes current.

As for `O=C(NCCN1CCCC1)c1ccc2c(=O)n(Cc3ccc(Cl)cc3)c(=O)[nH]c2c1` [Compound 1, 3-(4-Chloro-benzyl)-2,4-dioxo-1,2,3,4-tetrahydro-quinazoline-7-carboxylic acid (2-pyrrolidine-1-yl-ethyl)-amide], the “nH (Hill coefficient)” value is listed as 0.9 ± 0.1, the inhibition amounted to 103 ± 12.8% and the IC50 came out at 7.5 ± 2.5 µM.

In the case of `O=C(NCCN1CCCCC1)c1ccc2c(=O)n(-c3ccc(F)cc3)c(=O)[nH]c2c1` [Compound 2, 3-(4-Fluoro-phenyl)-2,4-dioxo-1,2,3,4-tetrahydro-quinazoline-7-carboxylic acid (2-piperidine-1-yl-ethyl)-amide], the “nH (Hill coefficient)” value turned out to be 0.9 ± 0.1, the inhibition worked out at 108 ± 6% and the IC50 came to 1.9 ± 0.4 µM.

In the case of `COc1ccc(-n2c(=O)[nH]c3cc(C(=O)NCCN4CCCCC4)ccc3c2=O)cc1` [Compound 3, 3-(4-Methoxy-phenyl)-2,4-dioxo-1,2,3,4-tetrahydro-quinazoline-7-carboxylic acid (2-piperidine-1-yl-ethyl)-amide], the “nH (Hill coefficient)” value is 1.4 ± 0.2, the inhibition was found to be 101 ± 3.6% and the IC50 was 1.6 ± 0.2 µM.

`O=C(NCCN1CCCCC1)c1ccc2c(=O)n(Cc3ccccc3F)c(=O)[nH]c2c1` [Compound 4, 3-(2-Fluoro-benzyl)-2,4-dioxo-1,2,3,4-tetrahydro-quinazoline-7-carboxylic acid (2-piperidine-1-yl-ethyl)-amide]: the “nH (Hill coefficient)” value was found to be 1.4 ± 0.4, the inhibition was found to be 100 ± 9.6% and the IC50 worked out at 2.1 ± 0.6 µM.

On to `O=C(NCCN1CCCCC1)c1ccc2c(=O)n(Cc3cccc(F)c3)c(=O)[nH]c2c1` [Compound 5, 3-(3-Fluoro-benzyl)-2,4-dioxo-1,2,3,4-tetrahydro-quinazoline-7-carboxylic acid (2-piperidine-1-yl-ethyl)-amide], for which the “nH (Hill coefficient)” value came to 1.0 ± 0.2, the inhibition was 108 ± 11.5% and the IC50 turned out to be 2.4 ± 0.8 µM.

Turning to `O=C(NCCN1CCCCC1)c1ccc2c(=O)n(Cc3ccc(F)cc3)c(=O)[nH]c2c1` [Compound 6, 3-(4-Fluoro-benzyl)-2,4-dioxo-1,2,3,4-tetrahydro-quinazoline-7-carboxylic acid (2-piperidine-1-yl-ethyl)-amide], the “nH (Hill coefficient)” value is listed as 1.0 ± 0.2, the inhibition stood at 105 ± 7.5% and the IC50 stood at 1.9 ± 0.4 µM.

As to `COc1ccccc1Cn1c(=O)[nH]c2cc(C(=O)NCCN3CCCCC3)ccc2c1=O` [Compound 7, 3-(2-Methoxy-benzyl)-2,4-dioxo-1,2,3,4-tetrahydro-quinazoline-7-carboxylic acid (2-piperidine-1-yl-ethyl)-amide], the “nH (Hill coefficient)” value stood at 1.1 ± 0.2, the inhibition came to 103 ± 5.1% and the IC50 stood at 1.4 ± 0.2 µM.

Turning to `COc1cccc(Cn2c(=O)[nH]c3cc(C(=O)NCCN4CCCCC4)ccc3c2=O)c1` [Compound 8, 3-(3-Methoxybenzyl)-2,4-dioxo-1,2,3,4-tetrahydro-quinazoline-7-carboxylic acid (2-piperidine-1-yl-ethyl)-amide], the “nH (Hill coefficient)” value was found to be 1.3 ± 0.3, the inhibition worked out at 107 ± 8.5% and the IC50 was 2.7 ± 0.6 µM.

For the compound `COc1ccc(Cn2c(=O)[nH]c3cc(C(=O)NCCN4CCCCC4)ccc3c2=O)cc1` [Compound 9, 3-(4-Methoxybenzyl)-2,4-dioxo-1,2,3,4-tetrahydro-quinazoline-7-carboxylic acid (2-piperidine-1-yl-ethyl)-amide], the “nH (Hill coefficient)” value is 1.7 ± 0.2, the inhibition worked out at 96.4 ± 2.9% and the IC50 was 0.8 ± 0.1 µM.

In the case of `O=C(NCCN1CCCCC1)c1ccc2c(=O)n(C3CCCCC3)c(=O)[nH]c2c1` [Compound 10, 3-Cyclohexyl-2,4-dioxo-1,2,3,4-tetrahydro-quinazoline-7-carboxylic acid (2-piperidine-1-yl-ethyl)-amide], the “nH (Hill coefficient)” value is recorded as 1.1 ± 0.1, the inhibition came to 98.8 ± 4.2% and the IC50 is 2 ± 0.3 µM.

Take `CCCn1c(=O)[nH]c2cc(C(=O)NCCN3CCCCC3)ccc2c1=O` [Compound 11, 2,4-Dioxo-3-propyl-1,2,3,4-tetrahydro-quinazoline-7-carboxylic acid (2-piperidine-1-yl-ethyl)-amide]: the “nH (Hill coefficient)” value is recorded as 1.3 ± 0.1, the inhibition stood at 104 ± 3.6% and the IC50 worked out at 2.2 ± 0.2 µM.

For `Cn1c(=O)[nH]c2cc(C(=O)NCCN3CCCCC3)ccc2c1=O` [Compound 12, 3-Methyl-2,4-dioxo-1,2,3,4-tetrahydro-quinazoline-7-carboxylic acid (2-piperidine-1-yl-ethyl)-amide], the “nH (Hill coefficient)” value is given as 1.4 ± 0.1, the inhibition worked out at 103 ± 3.3% and the IC50 was found to be 2.2 ± 0.2 µM.

As for `O=C(NCCN1CCCCC1)c1ccc2c(=O)n(Cc3ccccc3Cl)c(=O)[nH]c2c1` [Compound 13, (2-Chloro-benzyl)-2,4-dioxo-1,2,3,4-tetrahydro-quinazoline-7-carboxylic acid (2-piperidine-1-yl-ethyl)-amide], the inhibition was found to be 96 ± 3.9%.

Take `O=C(NCCN1CCCCC1)c1ccc2c(=O)n(Cc3ccc(Cl)cc3)c(=O)[nH]c2c1` [Compound 14, 3-(4-Chloro-benzyl)-2,4-dioxo-1,2,3,4-tetrahydro-quinazoline-7-carboxylic acid (2-piperidine-1-yl-ethyl)-amide]: the “nH (Hill coefficient)” value turned out to be 1.2 ± 0.2, the inhibition amounted to 106 ± 2.5% and the IC50 worked out at 3.3 ± 0.5 µM.

On to `CC1CCCCN1CCNC(=O)c1ccc2c(=O)n(Cc3ccc(Cl)cc3)c(=O)[nH]c2c1` (centres unmarked) [Compound 15, 3-(4-Chloro-benzyl)-2,4-dioxo-1,2,3,4-tetrahydro-quinazoline-7-carboxylic acid (2-(2-methylpiperidine-1-yl)ethyl)-amide], for which the “nH (Hill coefficient)” value is 1.2 ± 0.1, the inhibition stood at 104 ± 2.5% and the IC50 is 2.8 ± 0.2 µM.

For the compound `O=C(NCCCN1CCOCC1)c1ccc2c(=O)n(Cc3ccc(Cl)cc3)c(=O)[nH]c2c1` [Compound 16, 3-(4-Chloro-benzyl)-2,4-dioxo-1,2,3,4-tetrahydro-quinazoline-7-carboxylic acid (3-morpholine-4-yl-propyl)-amide], the “nH (Hill coefficient)” value stood at 5.3 ± 1.5, the inhibition was 52.5 ± 0.6% and the IC50 turned out to be 1.3 ± 0.1 µM.

Take `CCC1CCCCN1CCCNC(=O)c1ccc2c(=O)n(Cc3ccc(Cl)cc3)c(=O)[nH]c2c1` (centres unmarked) [Compound 18, 3-(4-Chloro-benzyl)-2,4-dioxo-1,2,3,4-tetrahydro-quinazoline-7-carboxylic acid [3-(2-ethyl-piperidine-1-yl)-propyl]-amide]: the “nH (Hill coefficient)” value was found to be 1.4 ± 0.1, the inhibition amounted to 99.5 ± 1.6% and the IC50 amounted to 4.8 ± 0.2 µM.

For `O=C(NCCCN1CCCCC1)c1ccc2c(=O)n(Cc3ccc(Cl)cc3)c(=O)[nH]c2c1` [Compound 19, 3-(4-Chloro-benzyl)-2,4-dioxo-1,2,3,4-tetrahydro-quinazoline-7-carboxylic acid (3-piperidine-1-yl-propyl)-amide], the “nH (Hill coefficient)” value came out at 1.5 ± 0.2, the inhibition was 98.2 ± 4.5% and the IC50 worked out at 5.7 ± 0.6 µM.

With `CN1[C@@H]2CC[C@H]1C[C@@H](OC(=O)c1cc(Cl)cc(Cl)c1)C2` [MDL72222, reference compound], the “nH (Hill coefficient)” value is 1.25 ± 0.2.
